In paper PMC8596838, “Xylose‐Configured Cyclophellitols as Selective Inhibitors for Glucocerebrosidase” (Chembiochem, 2021):

Experiments:
GBA2 = target: T1, GBA2 (Homo sapiens, UniProt Q9HCG7); assay: ABP labeling of β-D-glucosidases in HEK293T cell lysate, GBA2; type: biochemical; details: 30 min, pH 6.0
T1 construct: expressed in transfected cells; host or cells: HEK293T (GBA/GBA2 KO background for the fluorogenic assay; endogenous-GBA background with GBA2 and GBA3 overexpressed for ABPP and intact-cell assays)
T1 sequence (Q9HCG7 1-927): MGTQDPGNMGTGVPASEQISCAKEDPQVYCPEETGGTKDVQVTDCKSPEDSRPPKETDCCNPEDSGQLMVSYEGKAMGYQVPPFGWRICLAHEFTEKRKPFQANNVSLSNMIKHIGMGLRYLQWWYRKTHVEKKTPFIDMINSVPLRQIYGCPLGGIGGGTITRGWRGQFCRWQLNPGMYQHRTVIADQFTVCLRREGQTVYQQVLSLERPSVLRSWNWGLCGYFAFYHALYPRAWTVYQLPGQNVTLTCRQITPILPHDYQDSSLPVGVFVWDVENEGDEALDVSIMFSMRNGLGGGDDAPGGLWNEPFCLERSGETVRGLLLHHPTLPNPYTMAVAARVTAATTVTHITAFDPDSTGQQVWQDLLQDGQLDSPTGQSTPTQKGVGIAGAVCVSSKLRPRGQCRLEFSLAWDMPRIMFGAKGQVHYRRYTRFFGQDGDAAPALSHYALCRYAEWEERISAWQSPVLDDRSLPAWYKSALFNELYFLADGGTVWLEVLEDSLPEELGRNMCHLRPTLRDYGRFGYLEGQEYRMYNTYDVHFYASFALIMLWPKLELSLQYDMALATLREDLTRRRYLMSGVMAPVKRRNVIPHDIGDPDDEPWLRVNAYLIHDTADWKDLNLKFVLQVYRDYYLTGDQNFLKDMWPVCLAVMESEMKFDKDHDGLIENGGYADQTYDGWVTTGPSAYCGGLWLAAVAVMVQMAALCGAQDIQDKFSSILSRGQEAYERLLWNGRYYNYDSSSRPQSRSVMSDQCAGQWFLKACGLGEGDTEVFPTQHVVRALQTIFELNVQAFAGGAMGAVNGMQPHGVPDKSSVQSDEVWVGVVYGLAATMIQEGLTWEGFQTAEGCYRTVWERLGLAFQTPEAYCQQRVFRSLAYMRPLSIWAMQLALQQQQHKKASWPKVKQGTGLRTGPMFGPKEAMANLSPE
Procedure: (§1) We next investigated, by ABPP, the GBA/GBA2/GBA3 activity and selectivity of β‐D‐xylo‐cyclophellitol aziridine ABPs 6 and 8 in comparison to those of GBA‐specific ABP 9 [31] or ABP 10.
(§2) Figure 4 (A) ABP labeling of β‐D‐glucosidases. A lysate of HEK293T cells expressing human GBA, GBA2 and GBA3 was incubated with indicated ABPs (6, 9 or 10) for 30 min at pH 6.0. Fluorescently labeled proteins were visualized after SDS‐PAGE. (B) Labeling with ABP 6 of wild type or mutant GBA2 (E527G nucleophile mutation and D667G acid/base mutation) expressed in HEK293T cells.
(§3) ABP labeling procedure: Glycosidases were labeled with excess fluorescent ABPs at optimum conditions. […] After ABP incubation, proteins were denatured by boiling the samples with 5× Laemmli buffer (50 % (v/v) 1 M Tris‐HCl, pH 6.8, 50 % (v/v) 100 % glycerol, 10 % (w/v) DTT, 10 % (w/v) SDS, 0.01 % (w/v) bromophenol blue) for 5 min at 98 °C, and separated by electrophoresis on 10 % (w/v) SDS‐PAGE gels running continuously at 90 V. Wet slab‐gels were scanned on fluorescence using the Typhoon FLA 9500 (GE Healthcare) at λEX 473 nm and λEM≥510 nm for green fluorescent ABP 8; and at λEX 635 nm and λEM≥665 nm for ABP 6, 9 and 10. ABP‐emitted fluorescence was quantified using ImageQuant software (GE Healthcare, Chicago, IL, USA) and curve‐fitted using Prism 8.0 (GraphPad Software). […]

GBA = target: T2, GBA (Homo sapiens, UniProt P04062); assay: ABP labeling of β-D-glucosidases in HEK293T cell lysate, GBA; type: biochemical; details: 30 min, pH 6.0
T2 construct: HEK293T cells that contain endogenous GBA; endogenous in cells; host or cells: HEK293T (ATCC CRL-3216) overexpressing GBA2 and GBA3
T2 sequence (P04062 40-536): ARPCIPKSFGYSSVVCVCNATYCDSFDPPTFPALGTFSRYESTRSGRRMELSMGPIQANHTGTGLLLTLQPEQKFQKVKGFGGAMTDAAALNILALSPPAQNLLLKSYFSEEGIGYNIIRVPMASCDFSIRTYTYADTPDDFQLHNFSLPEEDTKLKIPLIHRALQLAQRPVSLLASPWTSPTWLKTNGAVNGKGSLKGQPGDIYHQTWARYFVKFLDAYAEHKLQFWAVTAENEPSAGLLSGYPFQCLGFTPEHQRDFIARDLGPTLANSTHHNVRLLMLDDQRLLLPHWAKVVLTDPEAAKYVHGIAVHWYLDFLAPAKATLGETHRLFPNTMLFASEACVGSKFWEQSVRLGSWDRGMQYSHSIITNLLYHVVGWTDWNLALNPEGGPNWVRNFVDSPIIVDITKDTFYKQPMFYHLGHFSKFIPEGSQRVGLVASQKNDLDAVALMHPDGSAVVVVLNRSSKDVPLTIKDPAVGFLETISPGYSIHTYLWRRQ
Procedure: as §1, §2, §3

| Structure (SMILES) | labeling pattern of GBA and GBA2 (GBA2) | selectivity of ABP labeling towards GBA over GBA2 and GBA3 (GBA) |
| --- | --- | --- |
| CN1/C(=C/C=C/C=C/C2=[N+](CCCCCC(=O)NCc3cn(CCCCCCCCN4[C@H]5[C@H](O)[C@@H](O)[C@H](O)C[C@H]54)nn3)c3ccccc3C2(C)C)C(C)(C)c2ccccc21 (some centres unmarked) [ABP 6] | very similar to that of the broad‐specific β‐D‐glucosidase ABP 10 |  |
| CN1/C(=C/C=C/C=C/C2=[N+](CCCCCC(=O)NCc3cn(C[C@@H]4[C@@H](O)[C@H](O)[C@@H](O)[C@@H]5O[C@H]45)nn3)c3ccccc3C2(C)C)C(C)(C)c2ccccc21 [ABP 9, reference compound] |  | most selective ABP towards GBA over GBA2 and GBA3 |
